From US20070249588A1 (priority 2003, published 2007)

Target: α7 nAChR subtype (Rattus norvegicus, UniProt Q05941)
Format: binding

Sequence of α7 nAChR subtype (Q05941 23-502 limits assumed): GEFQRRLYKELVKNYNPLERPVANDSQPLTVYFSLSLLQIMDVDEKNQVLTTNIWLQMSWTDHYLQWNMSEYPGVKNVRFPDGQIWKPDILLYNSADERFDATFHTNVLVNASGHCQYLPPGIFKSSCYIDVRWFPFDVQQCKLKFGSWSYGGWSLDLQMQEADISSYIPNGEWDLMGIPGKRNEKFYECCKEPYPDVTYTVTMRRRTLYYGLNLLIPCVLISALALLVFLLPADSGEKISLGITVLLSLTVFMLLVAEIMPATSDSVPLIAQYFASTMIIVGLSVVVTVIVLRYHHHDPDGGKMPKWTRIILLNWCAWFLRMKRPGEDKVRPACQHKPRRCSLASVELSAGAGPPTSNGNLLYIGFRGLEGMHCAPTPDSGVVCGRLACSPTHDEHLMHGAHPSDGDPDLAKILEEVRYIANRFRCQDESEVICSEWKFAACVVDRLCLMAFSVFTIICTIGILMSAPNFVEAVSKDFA

Substance: ^125I-α-Bungarotoxin [^125I-α-BTX]
- Kd: 1.67 nM
